Assay in all cases: inhibition of tumour cell growth, NCI panel, 48 h
Assay [1] has as its system NCI/ADR-RES ovarian.
Assay [2] relates to DU-145 prostate.
Assay [3] deals with NCI-H522 lung.
For assay [4], the system named is SF-295 CNS.
Assay [5] has as its system UACC-257 melanoma.
Assay [6] has as its system MALME-3M melanoma.
Assay [7] has as its system BT-549 breast.
The test system of assay [8] is LOX IMVI melanoma.
Assay [9] deals with OVCAR-8 ovarian.

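Cells were grown in 96-well plates and exposed to each compound for 48 hours at five concentrations; endpoints were interpolated linearly between bracketing concentrations, or set to the highest concentration if not reached. Definition used: TGI = concentration required for complete inhibition of growth.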

The text below walks through data of PubChem BioAssay (NCI).

As for `O=c1c2cc(Cl)cc(Cl)c2oc2nc3n(c(=O)c12)CCCS3`, the TGI in assay [1] is > 100 µM; in assay [2], > 100 µM; in assay [3] it was 81.6 µM; in [4], > 100 µM; in assay [5], > 100 µM; in assay [6], > 100 µM. Moreover, the TGI in [7] was > 100 µM.

In the case of `O=C(CSc1nc2ccc(I)cc2c(=O)n1Cc1ccccc1)NNC(=O)c1ccccc1`, the TGI in [1] is 49 µM; in [8], > 100 µM; in [2] it was 45.9 µM; in [3], 25.8 µM; in assay [4], 30.7 µM; in assay [5] it was 57.2 µM. The TGI stood at 21.3 µM in [7] and 20.7 µM in assay [9].

Take `CC1CCC2(CC1)NC1=C(CC(C)CC1)C1=C2CC(C)CC1` (stereo not drawn): the TGI is 34.9 µM in assay [8]; > 100 µM in assay [2]; 40 µM in [3]; 36.9 µM in assay [4]; 72.9 µM in assay [5]; 74.5 µM in [6]. The figures for the TGI in assay [7] and in assay [9] were 38.4 µM and 65.6 µM, respectively.

Regarding `COC(=O)C1=C(C(=O)OC)SC2(S1)C(C(=O)OC)=C(C(=O)OC)Sc1c2ssc1=Nc1ccc(Cl)cc1`, the TGI is 1.16 µM in [8]; 1.65 µM in [2]; 5.34 µM in assay [4]; 2.3 µM in [5]; 5.11 µM in assay [7]; 3.25 µM in assay [9].

Consider `COc1ccc(C2C3CCc4ccccc4C3=NN2S(=O)(=O)c2ccc(/C=C/C(=O)O)cc2)cc1` (stereo not drawn), for which the TGI in assay [8] is 24.5 µM; in [2] it was > 100 µM; in assay [3] it was 7.04 µM; in [4] it was 9.08 µM; in assay [6] it was 23.1 µM; in [7], > 100 µM. Moreover, in assay [9], the TGI was determined as 92.5 µM.

Turning to `O=C(O)CCCc1ccc2ccccc2c1`, the TGI in [1], in assay [8], in [2], in assay [3], in [4] and in [5] was > 100 µM each time. In addition, the TGI in [7] and in assay [9] was > 100 µM throughout.

`CC(=O)OC12c3ccccc3-c3ccccc3C1C1C(=O)OC(=O)C12` (stereo not drawn): the TGI in assay [1], in [8], in [2], in assay [3], in [4] and in [5] was > 10 µM throughout. Besides, the TGI in assay [6] and in assay [9] was > 10 µM throughout.

As to `O=C1CSC(c2c[nH]c3ccccc23)N1c1ccccc1[N+](=O)[O-]` (stereo not drawn), the TGI in [8], in [2], in assay [3], in [4], in assay [5] and in assay [7] was > 100 µM in each case. Further, the TGI in [9] is > 100 µM.

With `COc1ccccc1/C=C1\NC(=S)N(/C=C2\C(=O)Oc3ccccc3C2=O)C1=O`, the TGI in assay [1], in assay [8], in assay [2], in assay [3], in assay [4] and in assay [5] was > 100 µM throughout. Further, the TGI in assay [7] and in [9] was > 100 µM each time.

Turning to `CC1C(OC2O[C@@H]3O[C@@]4(C)CC[C@H]5[C@H](C)CC[C@@H](C2C)[C@@]35O4)O[C@@H]2O[C@@]3(C)CC[C@H]4[C@H](C)CC[C@@H]1[C@@]24O3` (stereo partly drawn), the TGI in assay [8], in assay [2], in assay [3], in assay [4], in assay [5] and in assay [6] was > 50 µM throughout. Moreover, the TGI in assay [7] and in assay [9] was > 50 µM each time.

On to `CCOC(=O)c1[nH]cc(C)c1-c1ccc2c(-c3ccccc3)nc3ccccc3n12`, for which the TGI is 10.3 µM in [1]; 12.3 µM in assay [8]; 13.4 µM in [2]; 4.79 µM in assay [3]; 13.6 µM in [4]; 24.7 µM in assay [5]. For the same molecule, the TGI in assay [7] came out at 17.4 µM; in assay [9], 16.7 µM.

For `CC(C)(CCCCC(C)(C)[N+](C)(C)C)[N+](C)(C)C`, the TGI in assay [1], in assay [3], in assay [5] and in assay [9] was > 100 µM in each case.

`Cc1nnc(N)nc1/C=C/c1c(O)ccc2ccccc12`: the TGI in assay [1] is > 100 µM; in assay [8], > 100 µM; in [2], > 100 µM; in assay [4] it was 56.9 µM; in [5], > 100 µM; in [7], > 100 µM. Besides, in [9], the TGI is > 100 µM.

In the case of `CCOC(=O)c1c2c(c(O)c3ccccc3c(O)n(Cc3ccccc3)c1C)C(=O)C=CC2=O`, the TGI in assay [1] is > 100 µM; in assay [8], > 100 µM; in assay [2], > 100 µM; in assay [3] it was 92.7 µM; in [4], > 100 µM; in assay [5], > 100 µM. Also, the TGI in [6] and in assay [9] was > 100 µM each time.

For the molecule `C1CC[C@H]2SSC3CCCC[C@H]3SSC2C1` (stereo partly drawn), the TGI in assay [1], in [8], in assay [2], in [3], in assay [4] and in assay [5] was > 100 µM throughout. Also, the TGI in assay [7] and in assay [9] was > 100 µM throughout.

On to `C/C(=N\Nc1nc2cccnc2s1)c1ccccn1`, for which the TGI is 0.06 µM in assay [1]; > 100 µM in assay [2]; 3.48 µM in assay [4]; 42 µM in [6]; 15.9 µM in [7]; 0.0147 µM in [9].

With `CSc1ccc(/C=C2\N=C(c3ccccc3)N(c3nc4cc(C)c(C)cc4s3)C2=O)cc1`, the TGI was > 100 µM in [1]; 44.7 µM in assay [8]; > 100 µM in assay [2]; > 100 µM in [4]; > 100 µM in [5]; 98.1 µM in assay [7]. The same molecule had a TGI in assay [9] of 43.9 µM.
